The source of these data is ChEMBL document CHEMBL1201862, “PubChem BioAssay data set” (2004).

Some test systems named below: A498; EKVX; HCT-116; HOP-62; IGROV-1; KM12; MDA-MB-231; OVCAR-5; RXF 393; SF-268; SF-539; SN12C; SW-620; T47D; UACC-257; HCT-15; K562; RPMI-8226; SNB-19; SR.
Common to all, as to test: growth of human tumour cells (NCI), 48 h

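Interpolation was linear, between the two tested concentrations surrounding the appropriate level; five concentrations were tested over 48 hours in 96-well plates. At the GI50, growth is halved.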 Activity calls are given as the source filed them. Rule as the data show it: active = GI50 up to about 1.1 µM and inactive = higher.

On to `CN(C)CCNc1ncnc2nc(-c3ccccc3)c(-c3ccccc3)nc12`, for which the GI50 in the experiment with A498, in the experiment on EKVX, in the experiment with HCT-116, in the experiment with HOP-62, with IGROV-1 and with KM12 was > 100 µM (inactive) throughout. In addition, the GI50 in the experiment on MDA-MB-231, with OVCAR-5, in the experiment on RXF 393, in the experiment on SF-268, with SF-539 and with SN12C was > 100 µM (inactive) in each case. The GI50 with SW-620, in the experiment on T47D and with UACC-257 was > 100 µM (inactive) each time.

Take `O=c1/c(=C/c2ccc([N+](=O)[O-])o2)sc2n1[C@@H](c1ccc(Cl)cc1)C=C(c1cc(F)c(Cl)cc1Cl)N=2`: the GI50 in the experiment with A498 was 30.7 µM (inactive); in the experiment on HCT-116 it was 3.56 µM (inactive); in the experiment with HCT-15, 8.18 µM; in the experiment on HOP-62 it was 11.5 µM (inactive); in the experiment with IGROV-1, 15.8 µM (inactive); in the experiment on K562 it was 13.2 µM (inactive). In addition, the GI50 in the experiment with KM12 was 24.5 µM (inactive); with MDA-MB-231, 5.07 µM (inactive); in the experiment with OVCAR-5, 16.3 µM (inactive); in the experiment with RPMI-8226, 5.16 µM (inactive); in the experiment with RXF 393, 13.2 µM (inactive); in the experiment on SF-268, 13.8 µM (inactive). Besides, the GI50 was 22.4 µM (inactive) in the experiment on SF-539; 5.5 µM (inactive) in the experiment on SN12C; 15.9 µM (inactive) in the experiment with SNB-19; 4.91 µM (inactive) in the experiment on SW-620; 19 µM (inactive) in the experiment with T47D; 15.4 µM (inactive) with UACC-257.

As to `N#Cc1cc(C#N)c(Cl)nc1N`, the GI50 in the experiment on EKVX is > 10 µM (inactive); with HCT-116, > 10 µM (inactive); in the experiment with HCT-15 it was over 10 µM; in the experiment with HOP-62, > 10 µM (inactive); with IGROV-1, > 10 µM (inactive); with K562 it was 7.53 µM (inactive). Also, the GI50 in the experiment on KM12, with RPMI-8226, in the experiment with RXF 393, in the experiment with SF-268, in the experiment on SF-539 and in the experiment on SN12C was > 10 µM (inactive) each time. In addition, the GI50 in the experiment with SNB-19, with SR, in the experiment on SW-620 and with T47D was > 10 µM (inactive) each time.

For the compound `Cc1cc2ccccc2n2c1nc1ccccc12`, the GI50 in the experiment with A498 is 15.2 µM (inactive); with EKVX, > 100 µM (inactive); with HCT-116, > 100 µM (inactive); in the experiment on HCT-15, over 100 µM; in the experiment with HOP-62, > 100 µM (inactive); with IGROV-1, > 100 µM (inactive). Also, the GI50 in the experiment on K562, in the experiment with KM12, in the experiment on OVCAR-5, in the experiment with RPMI-8226, in the experiment with RXF 393 and with SF-268 was > 100 µM (inactive) each time. Also, the GI50 in the experiment with SF-539, in the experiment on SN12C, with SNB-19, in the experiment with SR, in the experiment on SW-620 and in the experiment on T47D was > 100 µM (inactive) throughout. For the same compound, the GI50 in the experiment on UACC-257 was > 100 µM (inactive).

For `CC12CC(C#N)(C#N)C(C#N)(CO1)C(=N)O2` (stereo not drawn), the GI50 in the experiment on A498 is > 100 µM (inactive); in the experiment with EKVX, > 100 µM (inactive); with HCT-116, 64.3 µM (inactive); in the experiment with HCT-15, 40.6 µM; in the experiment on IGROV-1 it was > 100 µM (inactive); in the experiment with K562 it was 75.7 µM (inactive). Further, the GI50 in the experiment with KM12 is > 100 µM (inactive); in the experiment on MDA-MB-231, > 100 µM (inactive); in the experiment with OVCAR-5, > 100 µM (inactive); in the experiment with RXF 393, 59.7 µM (inactive); in the experiment on SF-268 it was > 100 µM (inactive); with SF-539 it was > 100 µM (inactive). The GI50 in the experiment on SN12C was > 100 µM (inactive); with SNB-19, > 100 µM (inactive); in the experiment with SW-620, 53.6 µM (inactive); in the experiment on T47D it was > 100 µM (inactive); with UACC-257, > 100 µM (inactive).

Regarding `COc1cc(COC(=O)N2CSCC2C(=O)O)c([N+](=O)[O-])cc1OC` (stereo not drawn), the GI50 is > 100 µM (inactive) in the experiment with EKVX; > 100 µM (inactive) in the experiment on HCT-116; over 100 µM in the experiment with HCT-15; > 100 µM (inactive) in the experiment on HOP-62; > 100 µM (inactive) in the experiment on IGROV-1; > 100 µM (inactive) in the experiment with K562. Further, the GI50 in the experiment on KM12, in the experiment on OVCAR-5, in the experiment on RPMI-8226, in the experiment with SF-268, with SF-539 and in the experiment with SN12C was > 100 µM (inactive) throughout. In addition, the GI50 in the experiment with SNB-19, with SR, with SW-620, in the experiment with T47D and in the experiment on UACC-257 was > 100 µM (inactive) throughout.

`Nc1nc(N)c2ncn(Cc3ccccc3)c2n1`: the GI50 in the experiment with A498 was > 100 µM (inactive); in the experiment on EKVX, 21.8 µM (inactive); with HCT-116 it was > 100 µM (inactive); in the experiment on HCT-15, over 100 µM; with HOP-62 it was > 100 µM (inactive); in the experiment with IGROV-1, > 100 µM (inactive). Besides, the GI50 with KM12, with MDA-MB-231, in the experiment on OVCAR-5, with RPMI-8226, in the experiment with RXF 393 and in the experiment on SF-268 was > 100 µM (inactive) each time. For the same compound, the GI50 in the experiment with SF-539, with SN12C, in the experiment on SNB-19, in the experiment with SW-620, in the experiment on T47D and in the experiment on UACC-257 was > 100 µM (inactive) in each case.

On to `CC(C)(C)OC(=O)N1[C@@H]2Cc3ccc(N)cc3[C@@]1(C)c1ccccc12`, for which the GI50 in the experiment on A498 was 30.5 µM (inactive); in the experiment with EKVX, 38.3 µM (inactive); in the experiment on HCT-116, 18.7 µM (inactive); in the experiment on HCT-15, 11.1 µM; in the experiment on HOP-62, 35 µM (inactive); in the experiment with IGROV-1, 46.7 µM (inactive). Besides, the GI50 with K562 is 24.8 µM (inactive); with KM12, 33 µM (inactive); in the experiment with MDA-MB-231, 27.7 µM (inactive); with OVCAR-5, 42.1 µM (inactive); in the experiment on RPMI-8226, 21.8 µM (inactive); in the experiment on RXF 393, 15 µM (inactive). In addition, the GI50 in the experiment on SF-268 is 37.3 µM (inactive); in the experiment on SN12C it was 16.8 µM (inactive); with SNB-19 it was 44.1 µM (inactive); in the experiment with SW-620, 29.7 µM (inactive); in the experiment on T47D, 17.7 µM (inactive); in the experiment on UACC-257 it was 27.2 µM (inactive).

Regarding `CC(=O)OC[C@@]12CC[C@H]3C(C)(C)CCC[C@]3(C)[C@H]1C[C@@H](C1=CC(=O)O[C@H]1O)O2`, the GI50 with EKVX was 11.7 µM (inactive); with HCT-116, 2.84 µM (inactive); in the experiment with HCT-15 it was 2.05 µM; in the experiment on HOP-62, 10.4 µM (inactive); in the experiment on IGROV-1, 2.55 µM (inactive); in the experiment with K562 it was 1.48 µM (inactive). The GI50 in the experiment on KM12 was 6.75 µM (inactive); with OVCAR-5 it was 19.7 µM (inactive); with RPMI-8226, 2.15 µM (inactive); in the experiment on SF-268, 10.4 µM (inactive); in the experiment with SF-539 it was 2.39 µM (inactive); in the experiment with SN12C, 3.55 µM (inactive). For the same compound, the GI50 in the experiment on SNB-19 is 16.7 µM (inactive); with SR, 0.625 µM (active); in the experiment on SW-620, 4.81 µM (inactive); in the experiment with T47D, 2.59 µM (inactive); in the experiment on UACC-257 it was 2.12 µM (inactive).

Regarding `CCOc1ccc2nc3nc(O)nc(C)c3c(NCCCN(CC)CC)c2c1`, the GI50 in the experiment with A498 is > 100 µM (inactive); in the experiment with EKVX, > 100 µM (inactive); in the experiment with HCT-116 it was > 100 µM (inactive); in the experiment on HCT-15 it was over 100 µM; in the experiment with HOP-62, > 100 µM (inactive); with IGROV-1, > 100 µM (inactive). For the same compound, the GI50 in the experiment with K562, in the experiment with KM12, in the experiment on MDA-MB-231, with OVCAR-5, in the experiment with RXF 393 and in the experiment with SF-268 was > 100 µM (inactive) throughout. Besides, the GI50 in the experiment on SF-539, in the experiment with SN12C, with SNB-19, in the experiment on SW-620, with T47D and with UACC-257 was > 100 µM (inactive) throughout.

Regarding `CCOC(=O)CC(=O)N(c1ccc(OC)cc1)C(C(=O)OC)c1ccccc1` (stereo not drawn), the GI50 with EKVX is > 100 µM (inactive); with HCT-116, > 100 µM (inactive); in the experiment with HCT-15 it was over 100 µM; in the experiment with HOP-62 it was > 100 µM (inactive); with IGROV-1, > 100 µM (inactive); in the experiment with K562, > 100 µM (inactive). The GI50 in the experiment on KM12, in the experiment with OVCAR-5, in the experiment on RPMI-8226, with SF-268, with SF-539 and with SN12C was > 100 µM (inactive) each time. Further, the GI50 with SNB-19, in the experiment with SR, in the experiment on SW-620, in the experiment with T47D and with UACC-257 was > 100 µM (inactive) throughout.

`CNC(=O)c1nn[nH]c1Sc1c([N+](=O)[O-])ncn1C`: the GI50 in the experiment on A498 is > 100 µM (inactive); in the experiment on EKVX, > 100 µM (inactive); in the experiment on HCT-116, > 100 µM (inactive); in the experiment with HCT-15, over 100 µM; in the experiment on HOP-62, > 100 µM (inactive); in the experiment with IGROV-1, > 100 µM (inactive). Further, the GI50 in the experiment on K562, with KM12, in the experiment on MDA-MB-231, with OVCAR-5, in the experiment on RXF 393 and with SF-268 was > 100 µM (inactive) each time. Moreover, the GI50 with SF-539, in the experiment on SN12C, with SNB-19, in the experiment on SW-620, in the experiment on T47D and in the experiment with UACC-257 was > 100 µM (inactive) throughout.
